According to a melting point compilation (Tetko et al.; mined from patent text by program, amines drawn as free bases though some values may be those of a salt):

| Compound | melting point [°C] |
| --- | --- |
| CN1CC(C(=O)COC(=O)c2cccnc2)CC2c3cccc4[nH]cc(c34)CC21 (stereo not drawn) | 172 to 174 |
| Cn1c(CO)nc2cccnc21 | 229 to 231 |
| CCCCC[C@H]1CC[C@H](CCc2ccc(CCC)c(C#N)c2C#N)CC1 | 83.6 |
| CCCCCCCCCCCC(O)CC(=O)C(CCCCCC)C(=O)OC (stereo not drawn) | 38 to 39 |
| Cc1ccc(/C=C/C2=CCN(Cc3ccc(Cl)cc3)CC2)cc1 | 122 to 124 |
| CCSC1(SCC)CCC2C3CCC4=CC(=O)C=CC4(C)C3C(O)CC21C (stereo not drawn) | 163 to 165 |
| O=S1(=O)c2cccc3cccc(c23)N1CCN1CCC(CC2C=Cc3ccccc32)CC1 (stereo not drawn) | 166 |
| O=C(Nc1ccc(CCc2ccc(O)c(O)c2)cc1)C(=O)C1=C(O)c2ccccc2SC1 | 166 to 167 |
| Oc1ccc2ccc(-c3ccccc3)cc2c1 | 205 |
| Cc1cc(=O)n(CCCN2CCC(c3c[nH]c4ccccc34)CC2)c2ccccc12 | 74 to 77 |
| [N-]=[N+]=NC1CC(n2cnc3c(N4CCC4)nc(N)nc32)OC1CO (stereo not drawn) | 141 to 143 |
| CN(C=O)c1cc([N+](=O)[O-])cc([N+](=O)[O-])c1 | 93 to 94 |
| CC(C)(C)OC(=O)C[C@@H]1C[C@@H](COS(C)(=O)=O)NC1=O | 114 to 116 |
| C=C(C)c1ccccc1C(=O)O | 71.6 to 72.5 |
| Cc1cccc(-c2nc3ccccn3c2-c2ccnc(-c3ccc(C(=O)NC4CCOCC4)cc3)c2)n1 | 128 |
| O=C(O)c1cccc(C2Oc3ccccc3C(O)=C2Cc2ccccc2)c1 (stereo not drawn) | 210 to 212 |
| Cn1nnnc1SCCCC(=O)c1ccccc1 | 57.5 to 58 |
| Cc1ccccc1C(Oc1cc(OCc2ccc3c(c2)OCO3)ccc1C#N)C(=O)O (racemic) | 52 to 56 |
| Clc1ccccc1OCC1(c2ccccc2)CCN(Cc2ccccc2)CCO1 (stereo not drawn) | 114 to 115 |
| COC(=O)C(S)CNC(=O)C(=O)NCC(S)C(=O)OC (stereo not drawn) | 150 to 151 |
| CCNc1nc(C)nc(O)c1C(C)C | 180 |

| Compound | melting point [°C] |
| --- | --- |
| O=C1c2ccccc2S(=O)(=O)N1CCCCN1CCC2(CC1)Cc1ccccc1O2 | 98 to 100 |
| CN1CCC(=C2c3ccccc3C3=C(c4ccccc42)C2(C)C=CC3O2)CC1 (stereo not drawn) | 175 to 177 |
| N#CC(C(=O)Nc1ccccc1)C(=O)c1nn(-c2ccccc2)c2c1CSc1ccc(NC(=O)CCC(=O)O)cc1-2 (stereo not drawn) | 230 to 233 |
| C[C@](O)(COc1ccc(C#N)cc1)C(=O)Nc1ccc(C#N)c(C(F)(F)F)c1 | 92 to 94 |
| CCc1nc(CC(=O)O)no1 | 58 to 60 |
| CC(=O)OC1CSC(Oc2cccnc2-c2ccccc2)C(OC(C)=O)C1OC(C)=O (stereo not drawn) | 69 to 101 |
| CCCCCCC/C=C/C(=O)NCC | 38 to 40 |
| CCCNCCCC(c1ccccc1)c1ccccc1 | 94 to 96 |
| Cc1ccc(CN2CCC(NC(=O)NC(=O)c3ccccc3)CC2)cc1C | 239 to 240 |
| CN1CCc2nc3ccc(Cl)cc3c(Nc3ccccc3)c2C1 | 137 to 139 |
| O=C(O)C1CC1(C(=O)O)c1ccc([N+](=O)[O-])cc1 (stereo not drawn) | 138 to 144 |
| CCOC(=O)C1=C(C)N=C(SCc2ccc(OC)cc2)N(C(=O)OCC)C1c1ccccc1OC (stereo not drawn) | 116 to 118 |
| N#CCc1ccc(Cl)cc1C(=O)O | 120 |
| CC(=O)c1cc2c(cc1C)C(C)(C)CCC2(C)C | 54 to 57 |
| CC(C)[C@H]1CC[C@H](C(=O)N[C@H](Cc2ccc(OCCN(C)c3ccccn3)cc2)C(=O)O)CC1 | 154 to 155 |
| COc1ccc(CNc2cc(OCc3ccccn3)ccc2C(=O)c2cc(OC)c(OC)c(OC)c2)cc1Cl | 142 to 144 |
| O=C1CSCc2cc(Br)ccc21 | 81 |
| COc1ccc(OC(CCCN2C3CCC2CNC3)c2ccc(C#N)cc2)cc1OC (stereo not drawn) | 38 to 43 |
| CC1(C)Oc2ccc(C(=O)O)cc2S1 | 124 to 125 |
| Brc1cccc(C2Cc3cnc(Nc4ccc(CCNc5ccccc5)cc4)nc3-c3ccccc32)c1 (stereo not drawn) | 92 to 94 |

Next, values leading:

| melting point [°C] | Compound |
| --- | --- |
| 209 to 211 | COc1ccc(OC)c(-c2cn(C)cc(C#N)c2=O)c1 |
| 166 to 168 | CC(C#N)=C1CCN(c2ccc(N3C[C@H](CNC(=O)C(Cl)(Cl)Cl)OC3=O)cc2F)CC1 |
| 216 to 220 | COc1c2c(cc3ccccc13)C(=O)NC2=O |
| 142 | NC(=O)N[C@@H]1CN2C(=O)N(c3cc(Cl)nc(Cl)c3)C(=O)[C@@]2(Cc2ccc(OC(F)(F)F)cc2)C1 |
| 206 to 209 | O=C(O)c1cc(NC(=O)C(CS)Cc2ccccc2)ccc1O (stereo not drawn) |
| 206 to 207 | CCCn1c(=O)n2c(-c3cccs3)nnc2c2c1ncn2C |
| 196 to 198 | CC1c2ccccc2-c2ccccc2N1S(=O)(=O)c1ccc(O)cc1 (stereo not drawn) |
| 94 to 97 | COC(=O)CCCC(C)(C)c1ccc(O)c(C(C)=O)c1O |
| 57 to 70 | CC(C)[C@H](S)C(=O)NC(C)(C)C(=O)N[C@@H](COCc1ccccc1)C(=O)O |
| 111 to 113 | COc1ccc(CCNC(=O)CN(C(C)=O)c2cccc(C(N)=O)c2)cc1OC |
| 135 to 136 | CCn1ncc2c(NCC3CCC(C(=O)OCSC)CC3)c3ccccc3nc21 (stereo not drawn) |
| 48 to 50 | Fc1cc(Cl)cc(Cn2cccc2)c1 |
| 234 to 235 | CCCOc1ccccc1-c1nc2nc(OC)nnc2c(=O)[nH]1 |
| 105 to 106 | CCCC(=O)c1ccc(OC)c(C(=O)O)c1 |
| 186 to 188 | O=C(Nc1ccc2cc(CN3CCCC3)cnc2c1F)c1ccc(-c2ccccc2)cc1 |
| > 131 | CCCCc1nc(C(O)C(C)C)c(C(N)=O)n1Cc1ccc(-c2ccccc2C(=O)O)cc1 (stereo not drawn) |
| 75 to 76 | CCn1cc(CN(C(=O)C2CCCc3ccccc32)c2ccc(C(C)C)cc2)cn1 (stereo not drawn) |
| 220 to 222 | O=C(O)Cc1c(Cl)nc(-c2cccc(O)c2)n1Cc1ccccc1 |
| 204 | O=C(CN1C(=O)c2ccccc2C1=O)Nc1ccccc1-c1ccccc1 |

| melting point [°C] | Compound |
| --- | --- |
| 114 to 115 | Cc1cc(C)c(C(CO)c2ccc(Br)cc2)c(O)c1C (stereo not drawn) |
| 209 to 210 | COc1cc(C)nc2c(OCc3c(Cl)ccc(N(C)C(=O)CN4C(=O)c5ccccc5C4=O)c3Cl)cccc12 |
| 170 to 171 | O=C(Nc1ccc(Cl)cn1)c1cc(Cl)ccc1NCC1CCN(C2CCCC2)CC1 |
| 132 to 134 | COc1ccc(C)cc1NC(=O)Nc1ccc(N2CCN(C(=O)Nc3cc(OCCO)ccc3Cl)CC2)nc1 |
| > 300 | O=c1[nH]c2ccc3c(c2n(Cc2ccccc2)c1=O)CCCN3 |
| 204 to 207 | COc1ccc2c(c1)C(=O)N(c1ccc3ncsc3c1)C2 |
| 163 to 164 | CC(C)COc1c(-c2ccc(S(N)(=O)=O)c(F)c2)cnn(CC(F)(F)F)c1=O |
| 80 to 82 | CCCOc1ccc(Br)c(C(=O)C=Cc2ccc3c(c2)OCO3)c1 |
| 161 to 164 | Cc1cc(C(=S)N(C)C)ncc1C(c1cc(F)ccc1F)S(=O)(=O)c1ccc(F)cc1 (stereo not drawn) |
| 220 to 223 | O=C(O)COc1cc(Br)c2oc3cccc(F)c3c(=O)c2c1 |
| 100 | CC1(C)C=C(c2ccccn2)c2cc(Cl)ccc2OC1 |
| 336 to 340 | C=CCNc1nc(C2C(=O)Nc3ccc(Br)cc32)c2cn(C)nc2n1 (stereo not drawn) |
| 178 to 181 | CCc1ccc2[nH]c(=O)oc(=O)c2c1 |
| 98 to 99 | O=S(c1ccc(C=Cc2nc(CCl)cs2)cc1)C(F)(F)F (stereo not drawn) |
| 187 to 188 | COc1cc2c(cc1OC)N(C(=O)c1ccc(-c3ccccc3C(F)(F)F)c(C)c1)Cc1cccn1C2 |
| 207 to 209 | O=C1CCCC(=O)N1c1ccc([N+](=O)[O-])cc1 |
| 148 to 150 | CCOC(=O)c1c(-c2ccc(F)cc2)cc(-c2cccc3c2OCO3)nc1C(C)C |
| 135 to 136 | CCc1cc(OCc2ccccc2)cc(C(=O)O)c1C(=O)OC |
| 184 to 186 | CC(C)(C)C1(Cl)Cc2cc(OCC(=O)O)c(Cl)c(Cl)c2C1=O (stereo not drawn) |

| melting point [°C] | Compound |
| --- | --- |
| 242 to 243 | Cc1cc2c(-c3ccccc3Cl)c(N)c(=O)n(C)c2cc1C |
| 214 to 215 | CC(Cl)(Cl)C(NC(=O)c1ccc(C(F)(F)F)cc1)NC(=NS(=O)(=O)C(F)(F)F)Nc1cccnc1 (stereo not drawn) |
| 182 to 186 | CC(=O)SCC(Cc1ccccc1)C(=O)Nc1cc(C)cc(C(=O)O)c1C (stereo not drawn) |
| 245 to 247 | CC(C)(C)C1c2ccccc2-c2cc(Br)ccc2N1S(=O)(=O)c1ccc(O)cc1 (stereo not drawn) |
| 151 | COc1ccccc1CNc1ccc2cc(Nc3cccc(C(F)(F)F)n3)ccc2n1 |
| 158 to 159 | CCn1c(=O)c2c(nc(/C=C/c3ccc(OCCCCN=[N+]=[N-])cc3)n2C)n(CC)c1=O |
| 78 to 79 | O=C(Cl)COc1nn(Cc2ccccc2)c2ccccc12 |
| 98 to 101 | COc1ccc2[nH]c(S(=O)Cc3cc(N4CCCCC4)ncn3)nc2c1 (stereo not drawn) |
| 186 to 188 | Cn1cc(C(=O)NCc2ccc(Cl)cc2)c(=O)c2cc(C#CCO)cc(F)c21 |
| 105 to 107 | Cc1ccccc1C(=O)Nc1ccc(-n2nc(C3CC3)cc2C2CC2)c(F)c1 |
| 168 to 170 | Cc1oc2ccc(Nc3ncccc3N)cc2c1C |
| 171 to 172 | CSC(Oc1cc(I)c2ncc(Br)cc2c1)C(=O)NC(C)(C)C (stereo not drawn) |
| 114 | CCCc1nn(C)c2c(NCc3ccc4c(c3)OCO4)nc(-c3ccc(C(=O)O)cc3)nc12 |
| 181 | CCc1nc2c(C)cc(C)nc2n1C1CCc2cc(-c3ccccc3-c3nnn[nH]3)ccc21 (stereo not drawn) |
| 87 to 88 | CCOC(=O)c1cnc2ccc(Cl)cc2c1Cl |
| 134 to 142 | Cc1noc(NS(=O)(=O)c2ccccc2-c2ccc(-c3ncco3)cc2CN(C)C(=O)c2ccc(Cl)cc2Cl)c1C |
| 201 to 203 | CSc1ncc2ccc(Cl)nc2n1 |
| 77 to 78 | CC(=O)n1ccc2c(C=O)ccc(OCc3ccccc3)c21 |
| 235 to 238 | NS(=O)(=O)c1cc2c(cc1Cl)NC(c1ccccc1)NS2(=O)=O (stereo not drawn) |
